Experiments:
Format in all cases: cell-based, mouse
[1] = system: β-galactosidase in CMV-LacZ C2C12 myotubes; experiment: CMV-LacZ secondary screen in C2C12 myotubes (β-Gal stabilizing assay); settings: C2C12 CMV-LacZ myotubes, fold relative to DMSO
In short: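 Dose-response runs at 0.5–40 μM (0.5, 1, 5, 10, 20, 40 μM; N=2 per point) used a clonal C2C12 line carrying CMV-LacZ. Cells were assayed as myoblasts or as differentiated myotubes, and β-galactosidase levels were read with the FDG fluorogenic substrate.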

[2] = system: α7 integrin (LacZ reporter in α7+/LacZ myotubes); experiment: Myotube α7 integrin FDG assay (Burkin assay in myotubes, 96-well); settings: myotubes
[3] = system: α7 integrin (LacZ reporter in α7βgal+/− myoblasts); experiment: Myoblast α7+/LacZ integrin FDG assay (Burkin assay in myoblasts, 96-well); settings: α7+/LacZ myoblasts, 96-well
[4] = system: β-galactosidase in CMV-LacZ C2C12 myoblasts; experiment: CMV-LacZ secondary screen in C2C12 myoblasts (β-Gal stabilizing assay); settings: CMV-LacZ C2C12 myoblasts
In short: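 C2C12 myoblasts stably carrying a linearized CMV-driven LacZ construct, clone chosen by β-gal level in the myoblast FDG assay. Compounds tested in 96-well dose-response at 0.5, 1, 5, 10, 20 and 40 μM, N=2 replicates per point, to detect β-gal stabilization.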

Row | Compound | CMV-LACZ in Myotubes, signal relative to DMSO ([1]; 0.5 uM) | CMV-LACZ in Myotubes, signal relative to DMSO ([1]; 1 uM) | CMV-LACZ in Myotubes, signal relative to DMSO ([1]; 5 uM) | CMV-LACZ in Myotubes, signal relative to DMSO ([1]; 10 uM) | CMV-LACZ in Myotubes, signal relative to DMSO ([1]; 20 uM) | CMV-LACZ in Myotubes, signal relative to DMSO ([1]; 40 uM) | Burkin Assay in Myotubes, α7 integrin LacZ reporter signal relative to DMSO ([2]; 0.5 uM) | Burkin Assay in Myotubes, α7 integrin LacZ reporter signal relative to DMSO ([2]; 1 uM) | Burkin Assay in Myotubes, α7 integrin LacZ reporter signal relative to DMSO ([2]; 5 uM) | Burkin Assay in Myotubes, α7 integrin LacZ reporter signal relative to DMSO ([2]; 10 uM) | Burkin Assay in Myotubes, α7 integrin LacZ reporter signal relative to DMSO ([2]; 20 uM) | Burkin Assay in Myotubes, α7 integrin LacZ reporter signal relative to DMSO ([2]; 40 uM) | Burkin Assay in Myoblasts, signal relative to DMSO ([3]; 0.5 uM) | Burkin Assay in Myoblasts, signal relative to DMSO ([3]; 1 uM) | Burkin Assay in Myoblasts, signal relative to DMSO ([3]; 5 uM) | Burkin Assay in Myoblasts, signal relative to DMSO ([3]; 10 uM) | Burkin Assay in Myoblasts, signal relative to DMSO ([3]; 20 uM) | Burkin Assay in Myoblasts, signal relative to DMSO ([3]; 40 uM) | CMV-LACZ in Myoblasts (β-galactosidase activity relative to DMSO) ([4]; 0.5 uM) | CMV-LACZ in Myoblasts (β-galactosidase activity relative to DMSO) ([4]; 1 uM) | also measured
1 | CN(/C(=N/S(=O)(=O)c1cccs1)c1ccccc1)c1ccccc1 [MLS000582947-01] | 0.8848 | 0.9610 | 0.9280 | 0.9127 | 1.0729 | 1.0247 | 0.9003 | 1.155 | 1.02 | 0.9759 | 1.102 | 0.791 | 1.236 | 0.9632 | 0.943 | 0.9807 | 0.9417 | 0.7737 | 0.9691 | 0.8991 | CMV-LACZ in Myoblasts (β-galactosidase activity relative to DMSO) ([4]; 5 uM): 1.1273; CMV-LACZ in Myoblasts (β-galactosidase activity relative to DMSO) ([4]; 10 uM): 1.0067; CMV-LACZ in Myoblasts (β-galactosidase activity relative to DMSO) ([4]; 20 uM): 0.7811; CMV-LACZ in Myoblasts (β-galactosidase activity relative to DMSO) ([4]; 40 uM): 0.8819
2 | CC1CC(C)(C)NC(=S)N1CC(=O)N(C)Cc1ccccc1 (stereo not drawn) [MLS000586245-01] | 1.0611 | 1.0800 | 0.9511 | 1.1338 | 1.2267 | 1.2656 | 1.003 | 0.9584 | 1.043 | 1.179 | 0.9426 | 1.026 | 0.9903 | 1.049 | 1.116 | 1.244 | 1.033 | 1.021 | 0.9034 | 0.8985 | CMV-LACZ in Myoblasts (β-galactosidase activity relative to DMSO) ([4]; 5 uM): 0.9258; CMV-LACZ in Myoblasts (β-galactosidase activity relative to DMSO) ([4]; 10 uM): 1.0505; CMV-LACZ in Myoblasts (β-galactosidase activity relative to DMSO) ([4]; 20 uM): 0.7726; CMV-LACZ in Myoblasts (β-galactosidase activity relative to DMSO) ([4]; 40 uM): 0.7674
3 | Cc1ccc(N2C(=O)C3NN=C(C(=O)OCc4ccccc4)C3C2=O)cc1 (stereo not drawn) [MLS000588210-01] | 1.1263 | 1.0853 | 0.9182 | 1.0815 | 1.1322 | 1.1656 | 0.9425 | 0.9559 | 0.9466 | 0.9155 | 0.9763 | 0.9565 | 1.055 | 0.9707 | 0.9002 | 0.9816 | 1.136 | 0.9611 | 1.2908 | 0.9782 | CMV-LACZ in Myoblasts (β-galactosidase activity relative to DMSO) ([4]; 5 uM): 0.7808; CMV-LACZ in Myoblasts (β-galactosidase activity relative to DMSO) ([4]; 10 uM): 0.9316; CMV-LACZ in Myoblasts (β-galactosidase activity relative to DMSO) ([4]; 20 uM): 1.0307; CMV-LACZ in Myoblasts (β-galactosidase activity relative to DMSO) ([4]; 40 uM): 0.9000
